For series [1], the system named is NCI-H524 (ATCC) human lung cancer cells. It counts as cell-based. The method in brief:
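NCI-H524 cells at 5,000/well were exposed to conjugate for 2 h from 20 μM top dose (ten-point, three-fold dilutions), washed, then grown a further 70 h. For competition, cells were pretreated 30 min with 100 μM octreotide. CellTiter Glo readout; % inhibition vs vehicle; four-parameter IC50.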

A short description of series [2]: Solubility in aqueous media containing surfactants such as Tween 80. Format: physicochemical. The note with it: aqueous Tween 80.
The target in series [3] is T1, SSTR2 (Homo sapiens, UniProt P30874). Kind of series: Radioligand-receptor binding assay, [125I] labeled somatostatin, membranes from SSTR2 expressing CHO-K1 cells. The arrangement: host or cells: CHO-K1. The method, then:
Two conjugates were assessed in an in vitro assay evaluating binding to the somatostatin receptor 2 (SSTR2). A radioligand-receptor binding assay was conducted at Eurofins Panlabs (Taiwan) to determine the affinity of conjugates described herein to the SSTR2. The assay measures binding of radiolabeled ligand, [^125I] labeled somatostatin, to human SSTR2 using membrane preparations from SSTR2 expressing CHO-K1 cells. Membranes were incubated with radiolabeled somatostatin (0.03 nM) in the presence of conjugate/compound starting at a dose of 10 uM using 6× serial dilutions to obtain a 10-pt curve. After a four-hour incubation, membranes were filtered and washed 3× and counted to determine the remaining [^125I] somatostatin bound to the receptor. IC50 values were determined by a non-linear, least squares regression analysis using MathIQ™ (ID Business Solutions Ltd., UK). The Ki values were calculated using the equation of Cheng and Prusoff (Cheng and Prusoff, Biochem. Pharmacol. 22: 3099-3108, 1973) using the observed IC50 of the tested conjugate/compound, the concentration of radioligand employed in the assay, and the historical values for the KD of the ligand obtained at Eurofins.

Series [4] has as its target T1, SSTR2. Kind of series: PathHunter eXpress Activated GPCR Internalization agonist assay. It counts as cell-based. On the set-up: expressed in transfected cells. Particulars: receptor internalization, agonist dose response. The method, then:
Two conjugates were assessed in an in vitro assay evaluating SSTR2. The steps outlined below provide the assay volumes and procedure for performing agonist assays using the PathHunter eXpress Activated GPCR Internalization cells and PathHunter Detection Reagents generally according to the manufacturer's recommendations. GraphPad Prism® was used to plot the agonist dose response.

Series [5] deals with NCI-H69 SCLC (small cell lung cancer) tumors. Put plainly: H69 tumor DM-1 levels by LC/MS-MS. Particulars: 24 hour time point; dosed at 1 mg/kg (conjugates, nanoparticles) or 0.4 mg/kg for DM-1. It counts as in vivo, mice. As for the experimental part: To examine the ability of conjugates of the present invention to accumulate in tumors, a murine cancer model was used. All mice were treated in accordance with the OLAW Public Health Service Policy on Human Care and Use of Laboratory Animals and the ILAR Guide for the Care and Use of Laboratory Animals. All in vivo studies were conducted following the protocols approved by the Blend Therapeutics Institutional Animal Care and Use Committee. Animals were inoculated with 2.5×10{circumflex over (0)}6 NCI-H69 SCLC (small cell lung cancer) cells in 1:1 RPMI 1640 (Invitrogen, Carlsbad, Calif.)/Matrigel® (BD Biosciences, San Jose, Calif.) via subcutaneous injection to the right flank. Tumors were allowed to reach an approximate volume of ˜500 mm3. Animals were then randomized into treatment groups of 3 animals per time point and were dosed at 1 mg/kg (10% propylene glycol in water for injection for free conjugates, or 10% sucrose for nanoparticles), or 0.4 mg/kg for DM-1 (10% propylene glycol in water for injection). The 24 hour time point was used as a benchmark across conjugates.
Tumor DM-1 levels were determined by liquid chromatography mass spectrometry (LC/MS-MS). Four volumes of 5 mM 6-maleimidohexanoic acid to 1 part tumor v/w was added and homogenized for about 10-15 seconds with a handheld homogenizer. 10 μL of 500 mM Tris(2-carboxyethyl)phosphine was added to 100 uL of tumor homogenate, mixed well and incubated at room temperature for about 5-15 min. 200-300 uL of acetonitrile was used to precipitate proteins in tumor homogenate, samples were centrifuged for 5 min, and supernatant was injected onto LC/MS-MS system for DM-1 analysis.

The test system of series [6] is human NCI-H69 SCLC. Put plainly: Tumor growth of human NCI-H69 SCLC in mice. Particulars: for tumor volume: Conjugate 10 and Conjugate 10 NP6 2 mg/kg, DM1 0.8 mg/kg, once weekly for two doses, up to 100 days, FIG. 4. It counts as in vivo, NCR nude mice. The method, then:
Applicants assessed the activity of a conjugate and a nanoparticle formulation of the conjugate in vivo. In these experiments, the ability of compounds to affect the growth of human NCI-H69 SCLC was tested. For the in vivo study, 8 week old female NCR nude mice were inoculated subcutaneously into the right flank with 2 million cells in 1:1 RPMI 1640 (Invitrogen, Carlsbad, Calif.)/Matrigel® (BD Biosciences, San Jose, Calif.). Tumor measurements were taken twice weekly, using vernier calipers. Tumor volume was calculated using the formula: V=0.5×width×width×length.
When tumors approached a volume of 200 mm^3, mice were randomized into four groups of ten animals. Mice were treated with vehicle control (10% propylene glycol in water for injection), Conjugate 10 at 2 mg/kg (10% propylene glycol in water for injection), Conjugate 10 NP6 nanoparticle at 2 mg/kg (10% Sucrose), or DM1 at 0.8 mg/kg (10% propylene glycol in water for injection). Mice were dosed once weekly for two doses. Final tumor volumes were analyzed using with a one-way analysis of variance and Tukey multiple comparison test.
Tumor volume study was repeated with three doses for vehicle, Conjugate 10 (0.7 mg/kg each), and Conjugate 10 NP6 (0.7 mg/kg each). Tumor volumes were tracked for 30 days.

The nature of series [7]: Pharmacokinetics in rat plasma of Conjugate 10 and Conjugate 10 NP6. The note with it: in vivo. As for the experimental part: Pharmacokinetics studies in rat plasma were also carried out. AUC values were show in Table 16.
Series [8] concerns phospho-histone H3. Put plainly: Phospho-histone H3 response in NCI-H69 tumors. Format: in vivo. The note with it: FIG. 8.
Setting [9] is: Table 6, treated 2 hours, further incubated 70 hours, read-out: H524 IC50.
The mark [10] stands for this setting: read-out: H524 IC50 + 100 μM octreotide, Table 6, with octreotide competition.
The mark [11] stands for this setting: Table 15, treated 2 hours, further incubated 70 hours, read-out: H524 IC50.
[12] abbreviates: read-out: H524 IC50+ 100 uM octreotide, Table 15, 100 μM octreotide for 30 min, then conjugate 2 hours, 70 hours incubation.

Where two headings read alike, the source gives them in different places. Numbered stars: 1 amine (or outer) side, 2 acyl side, 3 side chain; on linkers, the order of the positions; unused ones are H or OH. Bridge positions count the residues as written; N and C are the ends. Square brackets hold non-standard residues; d marks the D form. Peptide text beside a SMILES is read from it. * marks the point of attachment. X1 = COc1cc2cc(c1Cl)N(C)C(=O)C[C@H](OC(=O)[C@H](C)N(C)C(=O)CCS*)[C@]1(C)O[C@H]1[C@H](C)[C@@H]1C[C@@](O)(NC(=O)O1)[C@H](OC)/C=C/C=C(\C)C2; N(3-sulfanylpropyl)dPhe = O=C([C@@H](Cc1ccccc1)N(CCCS[*:3])[*:1])[*:2]

T1 sequence (P30874 whole entry): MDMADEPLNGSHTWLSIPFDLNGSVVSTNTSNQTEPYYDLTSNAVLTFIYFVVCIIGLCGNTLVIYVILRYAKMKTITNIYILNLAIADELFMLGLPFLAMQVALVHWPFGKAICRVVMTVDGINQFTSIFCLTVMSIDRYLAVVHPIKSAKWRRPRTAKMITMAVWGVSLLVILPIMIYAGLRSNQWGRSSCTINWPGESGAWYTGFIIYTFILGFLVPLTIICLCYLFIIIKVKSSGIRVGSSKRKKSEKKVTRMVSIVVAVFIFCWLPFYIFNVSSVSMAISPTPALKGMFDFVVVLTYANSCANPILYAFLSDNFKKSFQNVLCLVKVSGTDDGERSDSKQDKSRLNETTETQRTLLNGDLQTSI

On to `CO[C@H]1C(=O)[C@]2(C)[C@@H](OC)C[C@H]3OC[C@@]3(OC(C)=O)[C@H]2[C@H](OC(=O)c2ccccc2)[C@]2(O)C[C@H](OC(=O)[C@H](OC(=O)OCCSSCCC(=O)N[C@H](Cc3ccccc3)C(=O)N[C@H]3CSSC[C@@H](C(=O)N[C@H](CO)[C@@H](C)O)NC(=O)[C@H]([C@@H](C)O)NC(=O)[C@H](CCCCN)NC(=O)[C@@H](Cc4c[nH]c5ccccc45)NC(=O)[C@H](Cc4ccccc4)NC3=O)[C@@H](NC(=O)OC(C)(C)C)c3ccccc3)C(C)=C1C2(C)C` [Conjugate 1], for which the IC50 was determined as 110 nM in series [1] (setting [9]) and 146 nM in series [1] (setting [10]). The “solubility in aqueous media containing surfactants such as Tween 80” value in series [2] is reported as “high solubility”. Further, in series [3] (read-out: SSTR2 Ki), the inhibition constant Ki was determined as 0.8 nM. The molecule further came in with an EC50 in series [4] of 4.4 nM.
For the molecule `COc1cccc2c1C(=O)c1c(O)c3c(c(O)c1C2=O)C[C@@](O)(C(=O)COC(=O)CCCC(=O)N[C@H](Cc1ccccc1)C(=O)N[C@H]1CSSC[C@@H](C(=O)N[C@H](CO)[C@@H](C)O)NC(=O)[C@H]([C@@H](C)O)NC(=O)[C@H](CCCCN)NC(=O)[C@@H](Cc2c[nH]c4ccccc24)NC(=O)[C@H](Cc2ccccc2)NC1=O)C[C@@H]3O[C@H]1C[C@H](N)[C@H](O)[C@H](C)O1` [Conjugate 2], the IC50 in series [1] (setting [9]) stood at 2850 nM; in series [1] (setting [10]) it was 2940 nM. Besides, the “solubility in aqueous media containing surfactants such as Tween 80” value in series [2] is reported as “high solubility”. In addition, the Ki in series [3] (read-out: SSTR2 Ki) came out at 0.24 nM. The EC50 in series [4] came out at 35 nM.
In the case of `COc1cc2cc(c1Cl)N(C)C(=O)C[C@H](OC(=O)[C@H](C)N(C)C(=O)CCSSCCC(=O)NCCCC[C@H]1C(=O)N[C@@H](Cc3ccc(O)cc3)C(=O)N[C@H](Cc3c[nH]c4ccccc34)C(=O)N[C@@H](CCCCN)C(=O)N[C@@H]([C@@H](C)O)C(=O)N[C@@H](Cc3ccccc3)C(=O)N1C)[C@]1(C)O[C@H]1[C@H](C)[C@@H]1C[C@@](O)(NC(=O)O1)[C@H](OC)/C=C/C=C(\C)C2` [Conjugate 10], in series [1] (setting [11]), the IC50 stood at 156 nM. Further, the IC50 in series [1] (setting [12]) came to 625 nM. For the same molecule, in series [5], the “H69 tumor DM-1 levels” value amounted to 72.1 nM. Further, the tumor volume entry in series [6] was “initially provided tumor regression, but tumors regrew”. For the same molecule, in series [6] (out to 100 days, 2 mg/kg, two doses, FIG. 5), the “animals removed from the study due to large tumor size (tumor size less than 2000 mm^3 curve)” value is on record as “three”. In series [7], this molecule yielded an AUC(0-inf) of 0.377 µM·h and a clearance of 13 mL/min/kg. Besides, in series [8], the “phospho-histone H3 response in NCI-H69 tumors after treatment” value is “Increase”. Also, the “phospho-histone H3 response at around 50 hour” value in series [8] (around 50 hour) is on record as “started to decrease”. The same molecule had a Ki in series [3] of 0.1 nM.
Turning to `COc1cc2cc(c1Cl)N(C)C(=O)C[C@H](OC(=O)[C@H](C)N(C)C(=O)CCSSCCCN[C@H](Cc1ccccc1)C(=O)N[C@H]1CSSC[C@@H](C(=O)N[C@H](CO)[C@@H](C)O)NC(=O)[C@H]([C@@H](C)O)NC(=O)[C@H](CCCCN)NC(=O)[C@@H](Cc3c[nH]c4ccccc34)NC(=O)[C@H](Cc3ccccc3)NC1=O)[C@]1(C)O[C@H]1[C@H](C)[C@@H]1C[C@@](O)(NC(=O)O1)[C@H](OC)/C=C/C=C(\C)C2` [Conjugate 76], the IC50 in series [1] (setting [11]) turned out to be 120 nM; in series [1] (setting [12]) it was 768 nM. Moreover, the “H69 tumor DM-1 levels” value in series [5] turned out to be 62.2 nM. Affinity in series [3] was put at a Ki of 0.12 nM. A half-maximal effect in series [4] (EC50) was put at 3 nM.
Consider `COc1cc2cc(c1Cl)N(C)C(=O)C[C@H](OC(=O)[C@H](C)N(C)C(=O)CCSSCCCN[C@H](Cc1ccccc1)C(=O)N[C@H]1CSSC[C@@H](C(=O)N[C@@H](Cc3c[nH]c4ccccc34)C(N)=O)NC(=O)[C@H](C(C)C)NC(=O)[C@H](CCCCN)NC(=O)[C@@H](Cc3c[nH]c4ccccc34)NC(=O)[C@H](Cc3ccc(O)cc3)NC1=O)[C@]1(C)O[C@H]1[C@H](C)[C@@H]1C[C@@](O)(NC(=O)O1)[C@H](OC)/C=C/C=C(\C)C2` [Conjugate 78] (H-[N(3-sulfanylpropyl)dPhe](X1)CY[dW]KVCW-NH2; disulfide 2-7), for which the IC50 in series [1] (setting [11]) came out at 124 nM; in series [1] (setting [12]), 365 nM. In series [5], the “H69 tumor DM-1 levels” value was 36.2 nM. The molecule also returned a Ki in series [3] of 0.19 nM.
Regarding `COc1cc2cc(c1Cl)N(C)C(=O)C[C@H](OC(=O)[C@H](C)N(C)C(=O)CCS)[C@]1(C)O[C@H]1[C@H](C)[C@@H]1C[C@@](O)(NC(=O)O1)[C@H](OC)/C=C/C=C(\C)C2` [DM1, reference compound], the tumor volume result in series [6] is given as “tumor volume increased rapidly”.

Values taken from US10322191B2, “Targeted conjugates and particles and formulations thereof” (TARVEDA THERAPEUTICS, INC., priority 2014, dated 2019).
